Data reported in US10125134B2 (Mirati Therapeutics, Inc., priority 2016, dated 2018).
pIC50: −log10 of the molar value. Where a name gives a salt, the structure may show the parent alone. Read-outs that look alike come from different tables or passages of the source.

Assays:
[1] = system: NCI-H358 cells (express KRas G12C), Phospho-ERK; assay: Cellular inhibition of KRas G12C: Phospho-ERK in NCI-H358 cells; assay type: cell-based; details: pERK(Thr202/Tyr204) normalized with GAPDH, NCI-H358 cells, 3 hours, read-out: IC50
Outline: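 IC50 derived by 4-parameter fit of GAPDH-normalized pERK(Thr202/Tyr204) signal, as percent of DMSO control. Signal came from in-cell immunodetection with infrared secondaries after 3 h compound exposure of KRas G12C NCI-H358 cells at 0.5% DMSO.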

KRas G12C = KRas G12C (Homo sapiens, UniProt P01116, C118S/C51S/C80L/G12C); assay: KRas G12C Modification Assay (LCMS detection of covalent adduct); assay type: binding; details: normalized percent of control; tested at 5 μM concentration for 3 hours
Outline: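 Cys-light KRas G12C mutant protein incubated with compound in K-Ras assay buffer, reactions quenched at set time points with 25 mM acetic acid and analysed by intact-protein LC/MS on a C-3 column. Deconvoluted mass heights expressed as percent of control (POC) relative to compound-free protein.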

POC (KRas G12C)	SMILES	pIC50 ([1]; Homo sapiens)	pIC50 ([1]; Homo sapiens, NCI-H358, 3 h)	pIC50 [1]
C (“C”>50% POC)	CN(C)C/C=C/C(=O)N1CCN(c2nc(OC[C@@H]3C[C@@H](O)CN3C)nc3c2CCN(c2cccc(F)c2C(F)(F)F)C3)C[C@@H]1CC#N [Example 342, 2-[(2S)-1-[(E)-4-(dimethylamino)but-2-enoyl]-4-[7-[3-fluoro-2-(trifluoromethyl)phenyl]-2-[[(2S,4R)-4-hydroxy-1-methyl-pyrrolidin-2-yl]methoxy]-6,8-dihydro-5H-pyrido[3,4-d]pyrimidin-4-yl]piperazin-2-yl]acetonitrile]	6.00 to 10.00		
C (“C”>50% POC)	C=CC(=O)N1CCN(c2nc(OCCN3CCC[C@H](OC)C3)nc3c2CCN(c2cc(O)cc4ccccc24)C3)CC1 [Example 98, (S)-1-(4-(7-(3-hydroxynaphthalen-1-yl)-2-(2-(3-methoxypiperidin-1-yl)ethoxy)-5,6,7,8-tetrahydropyrido[3,4-d]pyrimidin-4-yl)piperazin-1-yl)prop-2-en-1-one]		< 6.00	
C (“C”>50% POC)	C=CC(=O)N1CCN(c2nc(OC[C@@H]3CCN(C)C3)nc3c2CCN(c2c(C(F)(F)F)ccc4[nH]ncc24)C3)CC1CC#N (stereo partly drawn) [Example 313, 2-[4-[2-[[(3R)-1-methylpyrrolidin-3-yl]methoxy]-7-[5-(trifluoromethyl)-1H-indazol-4-yl]-6,8-dihydro-5H-pyrido[3,4-d]pyrimidin-4-yl]-1-prop-2-enoyl-piperazin-2-yl]acetonitrile]	6.00 to 10.00		
C (“C”>50% POC)	C=CC(=O)N1CCN(c2nc(OC[C@H]3CCCN3C)nc3c2CCN(c2c(C(F)(F)F)ccc4[nH]ncc24)C3)CC1CC#N (stereo partly drawn) [Example 243, 2-[4-[2-[[(2R)-1-methylpyrrolidin-2-yl]methoxy]-7-[5-(trifluoromethyl)-1H-indazol-4-yl]-6,8-dihydro-5H-pyrido[3,4-d]pyrimidin-4-yl]-1-prop-2-enoyl-piperazin-2-yl]acetonitrile]		6.00 to 10.00	
C (“C”>50% POC)	C=CC(=O)N1[C@H](C)CN(c2nc(OCCCN3CCOCC3)nc3c2CCN(c2cc(O)cc4ccccc24)C3)C[C@@H]1C [Example 191, 1-((2S,6R)-4-(7-(3-hydroxynaphthalen-1-yl)-2-(3-morpholinopropoxy)-5,6,7,8-tetrahydropyrido[3,4-d]pyrimidin-4-yl)-2,6-dimethylpiperazin-1-yl)prop-2-en-1-one]	< 6.00		
C (“C”>50% POC)	C=CC(=O)N1CCN(c2nc(OCCN(C)C)nc3c2CC(C)N(c2cc(O)cc4ccccc24)C3)CC1 (stereo not drawn) [Example 48, 1-(4-(2-(2-(dimethylamino)ethoxy)-7-(3-hydroxynaphthalen-1-yl)-6-methyl-5,6,7,8-tetrahydropyrido[3,4-d]pyrimidin-4-yl)piperazin-1-yl)prop-2-en-1-one trifluoroacetate]	< 6.00		
C (“C”>50% POC)	CN1CCC[C@H]1COc1nc2c(c(N3CCN(C(=O)OCc4ccccc4)C(CC#N)C3)n1)CCN(c1ncccc1C(F)(F)F)C2 (stereo partly drawn) [Example 241, benzyl 2-(cyanomethyl)-4-(2-(((S)-1-methylpyrrolidin-2-yl)methoxy)-7-(3-(trifluoromethyl)pyridin-2-yl)-5,6,7,8-tetrahydropyrido[3,4-d]pyrimidin-4-yl)piperazine-1-carboxylate]		< 6.00	
C (“C”>50% POC)	C=CC(=O)N1CCN(c2nc(OC[C@@H]3CCCN3C)nc3c2CCN(c2ccc(F)c4ccccc24)C3)C[C@@H]1CC#N [Example 316, 2-((S)-1-acryloyl-4-(7-(4-fluoronaphthalen-1-yl)-2-(((S)-1-methylpyrrolidin-2-yl)methoxy)-5,6,7,8-tetrahydropyrido[3,4-d]pyrimidin-4-yl)piperazin-2-yl)acetonitrile]		6.00 to 10.00	
C (“C”>50% POC)	C=CC(=O)N1CCN(c2nc(OC[C@H]3CN(C)CCO3)nc3c2CCN(c2cccc4ccccc24)C3)C[C@@H]1CC#N [Example 448, 2-((S)-1-Acryloyl-4-(2-(((R)-4-methylmorpholin-2-yl)methoxy)-7-(naphthalen-1-yl)-5,6,7,8-tetrahydropyrido[3,4-d]pyrimidin-4-yl)piperazin-2-yl)acetonitrile]		6.00 to 10.00	
B (“B”>25% POC−≤50% POC)	C=CC(=O)N1CCN(c2nc(O[C@H](C)CN(C)C)nc3c2CCN(c2c(C)ccc4[nH]ncc24)C3)CC1 [Example 162, 1-[4-[2-[(1R)-2-(dimethylamino)-1-methyl-ethoxy]-7-(5-methyl-1H-indazol-4-yl)-6,8-dihydro-5H-pyrido[3,4-d]pyrimidin-4-yl]piperazin-1-yl]prop-2-en-1-one]	< 6.00		
C (“C”>50% POC)	C=CC(=O)N1CCN(c2nc(OCCN3CCC[C@@H](OC)C3)nc3c2CCN(c2cc(O)cc4ccccc24)C3)CC1 [Example 99, (R)-1-(4-(7-(3-hydroxynaphthalen-1-yl)-2-(2-(3-methoxypiperidin-1-yl)ethoxy)-5,6,7,8-tetrahydropyrido[3,4-d]pyrimidin-4-yl)piperazin-1-yl)prop-2-en-1-one]		< 6.00	
A (“A”≤25% POC)	C=C(C)C(=O)N1CCN(c2nc(OC[C@@H]3CCCN3C)nc3c2CCN(c2cccc4ccccc24)C3)CC1CC#N (stereo partly drawn) [Example 261, 2-[1-(2-methylprop-2-enoyl)-4-[2-[[(2S)-1-methylpyrrolidin-2-yl]methoxy]-7-(1-naphthyl)-6,8-dihydro-5H-pyrido[3,4-d]pyrimidin-4-yl]piperazin-2-yl]acetonitrile]		< 6.00	
C (“C”>50% POC)	C=CC(=O)N1CCN(c2nc(OC[C@@H]3CCCN3C(C)C)nc3c2CCN(c2cc(O)cc4ccccc24)C3)CC1 [Example 145, 1-[4-[7-(3-hydroxy-1-naphthyl)-2-[[(2S)-1-isopropylpyrrolidin-2-yl]methoxy]-6,8-dihydro-5H-pyrido[3,4-d]pyrimidin-4-yl]piperazin-1-yl]prop-2-en-1-one]		6.00 to 10.00	
C (“C”>50% POC)	C=CC(=O)N1CC2(C1)CN(c1nc(OC(C)CN(C)C)nc3c1CCN(c1cc(O)cc4ccccc14)C3)C2 (stereo not drawn) [Example 18, 1-(6-(2-((1-(dimethylamino)propan-2-yl)oxy)-7-(3-hydroxynaphthalen-1-yl)-5,6,7,8-tetrahydropyrido[3,4-d]pyrimidin-4-yl)-2,6-diazaspiro[3.3]heptan-2-yl)prop-2-en-1-one]	< 6.00		
C (“C”>50% POC)	Cc1cccc(N2CCc3c(nc(OC[C@@H]4C[C@@H](F)CN4C)nc3N3CCN(C(=O)/C=C/CN(C)C)[C@@H](CC#N)C3)C2)c1C [Example 436, 2-((S)-1-((E)-4-(dimethylamino)but-2-enoyl)-4-(7-(2,3-dimethylphenyl)-2-(((2S,4R)-4-fluoro-1-methylpyrrolidin-2-yl)methoxy)-5,6,7,8-tetrahydropyrido[3,4-d]pyrimidin-4-yl)piperazin-2-yl)acetonitrile]	6.00 to 10.00		
C (“C”>50% POC)	C=CC(=O)N1CCN(c2nc(OC[C@@H]3CCCN3C)nc3c2CCN(c2ccccc2CC(F)(F)F)C3)CC1CC#N (stereo partly drawn) [Example 374, 2-(1-acryloyl-4-(2-(((S)-1-methylpyrrolidin-2-yl)methoxy)-7-(2-(2,2,2-trifluoroethyl)phenyl)-5,6,7,8-tetrahydropyrido[3,4-d]pyrimidin-4-yl)piperazin-2-yl)acetonitrile]			< 6.00
C (“C”>50% POC)	C=CC(=O)N1CCN(c2nc(OC[C@@H]3CCCN3C)nc3c2CCN(c2c(F)ccc4ccccc24)C3)CC1CC#N (stereo partly drawn) [Example 311, 2-(1-acryloyl-4-(7-(2-fluoronaphthalen-1-yl)-2-(((S)-1-methylpyrrolidin-2-yl)methoxy)-5,6,7,8-tetrahydropyrido[3,4-d]pyrimidin-4-yl)piperazin-2-yl)acetonitrile]		6.00 to 10.00	
C (“C”>50% POC)	C=CC(=O)N1CCN(c2nc(OCCN(C)C)nc3c2CCN(c2ccccc2C(F)(F)F)C3)CC1CC#N (stereo not drawn) [Example 279, 2-(1-acryloyl-4-(2-(2-(dimethylamino)ethoxy)-7-(2-(trifluoromethyl)phenyl)-5,6,7,8-tetrahydropyrido[3,4-d]pyrimidin-4-yl)piperazin-2-yl)acetonitrile]		6.00 to 10.00	
C (“C”>50% POC)	C=CC(=O)N1CCN(c2nc(NCCCN3CCOCC3)nc3c2CCN(c2cc(O)cc4ccccc24)C3)CC1 [Example 133, 1-[4-[7-(3-hydroxy-1-naphthyl)-2-(3-morpholinopropylamino)-6,8-dihydro-5H-pyrido[3,4-d]pyrimidin-4-yl]piperazin-1-yl]prop-2-en-1-one]	< 6.00		
A (“A”≤25% POC)	CC(C)=CC(=O)N1CCN(c2nc(OC[C@@H]3CCCN3C)nc3c2CCN(c2cccc4ccccc24)C3)CC1CC#N (stereo partly drawn) [Example 282, 2-(1-(3-methylbut-2-enoyl)-4-(2-(((S)-1-methylpyrrolidin-2-yl)methoxy)-7-(naphthalen-1-yl)-5,6,7,8-tetrahydropyrido[3,4-d]pyrimidin-4-yl)piperazin-2-yl)acetonitrile]		< 6.00	
C (“C”>50% POC)	C=CC(=O)N1CCN(c2nc(OC[C@@H]3CCCN3C)nc3c2CCN(c2ccc(F)c(C)c2C)C3)C[C@@H]1CC#N [Example 423, 2-((S)-1-acryloyl-4-(7-(4-fluoro-2,3-dimethylphenyl)-2-(((S)-1-methylpyrrolidin-2-yl)methoxy)-5,6,7,8-tetrahydropyrido[3,4-d]pyrimidin-4-yl)piperazin-2-yl)acetonitrile]		6.00 to 10.00	
